Data taken from patent publication US9884851B2, “Heterocycle-bisamide inhibitors of scavenger receptor BI” (THE BROAD INSTITUTE, INC., priority 2012, dated 2018).
Converted amounts (≈) assume the structure as drawn. “Also recorded” adds a separate entry of the source.

How the values were obtained:
Stability to GSH = type: physicochemical
Excerpt: Probe 2 (ML279) can potentially act as an electrophile under biological conditions, with its tetrazole alpha to the western amide.

[1] = system: endocytosis of transferrin; test: Transferrin endocytosis assay; type: cell-based, Chinese hamster; details: concentrations up to 35 μM
Excerpt: Transferrin Endocytosis Assay (SA 3: AID No. 602134)
This assay measures the endocytosis of an independent ligand, transferrin, which is not taken up via SR-BI but by clathrin-mediated endocytosis; thus providing a measure of the selectivity of the inhibitors. Alexa-594-labeled transferrin is taken into the cell via endocytosis and localization of labeled transferrin can be quantitated in the various intracellular compartments. […] Inhibitors of interest should act selectively at SR-BI and should have no activity in this assay.
Cells were pre-treated with compound for 3 hours and then treated with the Alexa-594 transferrin reagent for 30 minutes (Catalog No. T-13343; Invitrogen) in serum-free media. Plates of cells were then placed onto ice, washed with ice cold PBS, and then fixed with 4% paraformaldehyde. In addition, the nuclei were stained with 300 nM 4′,6-diamidino-2-phenylindole (DAPI) (Catalog No. 21490; Invitrogen). The cells were imaged with the Molecular Devices IXM microscope. Translocation measurements were performed using MetaExpress software and normalized for cell number.

Solubility in PBS = type: physicochemical; details: PBS pH 7.4, 23° C., 1% DMSO
Experimental: (§1) We noticed that the concentration of the probe fluctuated through the course of the assay (data not shown). We believe that this fluctuation is due to the low kinetic solubility of the probe. Thus, we decided to determine the amount of undissolved probe present in the well after it was treated with PBS for a given length of time, relative to the amount of undissolved probe at the start of the assay. The wells were centrifuged and the supernatant was removed after various time points, then acetonitrile was added to dissolve the remaining solid in the wells, and the amount of probe was quantified. […] The stability of the probe was confirmed by measuring stability in human plasma, with >99% remaining after a 5-hour incubation period. […] FIG. 5 summarizes known properties of the probe.

SR-BI = target: T1, SR-BI (Mus musculus, UniProt Q61009); test: Cholesterol efflux assay; type: cell-based, murine; design: expressed in transfected cells; host or cells: ldlA[mSR-BI], Chinese hamster ovary (CHO) cells lacking LDL receptor (Krieger Laboratory); details: for inhibition of efflux of free cholesterol (in words): efflux to HDL
T1 sequence (Q61009 1-509): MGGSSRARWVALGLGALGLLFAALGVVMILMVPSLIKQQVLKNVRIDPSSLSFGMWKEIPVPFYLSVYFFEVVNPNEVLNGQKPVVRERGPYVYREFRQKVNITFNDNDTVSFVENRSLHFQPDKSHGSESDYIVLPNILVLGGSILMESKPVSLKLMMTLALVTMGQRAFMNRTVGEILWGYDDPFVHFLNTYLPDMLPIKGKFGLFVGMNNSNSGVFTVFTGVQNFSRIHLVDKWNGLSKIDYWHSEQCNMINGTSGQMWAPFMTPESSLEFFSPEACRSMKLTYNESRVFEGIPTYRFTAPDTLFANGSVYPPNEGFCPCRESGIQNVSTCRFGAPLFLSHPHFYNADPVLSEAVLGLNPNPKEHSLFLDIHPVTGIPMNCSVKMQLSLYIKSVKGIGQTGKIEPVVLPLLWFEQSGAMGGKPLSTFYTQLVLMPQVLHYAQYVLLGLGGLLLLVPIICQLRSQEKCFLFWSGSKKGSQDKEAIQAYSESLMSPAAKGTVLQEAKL
Experimental: SR-BI also mediates bidirectional flux (e.g. efflux) of unesterified or ‘free’ cholesterol (FC) between cells and HDL or other acceptors. This assay is used to determine if the compounds alter the efflux of free cholesterol to HDL.
On Day 0, 50,000 cells per well were plated in 24-well plates. On the following day, the media was removed and [^3H]cholesterol in lipoprotein-deficient media was added. On Day 1, the medium was replaced with Ham's F12 medium supplemented with 10% bovine lipoprotein deficient serum with 1 μCi/ml [1,2-^3H]cholesterol (40-60 Ci/mmol). On Day 3, the cells were washed to remove serum and incubated in Ham's F12 plus 1% fatty acid-free BSA. On Day 4, the cells were washed and pretreated with compounds for 1 hour. Subsequently, the cells were incubated for an additional 2 hours with the same concentrations of small molecules and with unlabeled HDL (final HDL concentration of 100 μg protein/ml). The medium was collected to determine released cholesterol, and the cells were lysed. The amount of [^3H]cholesterol in the medium and cells was determined using liquid scintillation counting. Total cellular [^3H]cholesterol was calculated as the sum of the radioactivity in the efflux medium plus the radioactivity in the cells and was used to calculate the [^3H]cholesterol efflux (percent of total [^3H]cholesterol released into the medium).

[2] = Stability in human plasma; type: in vitro ADME; details: 5-hour incubation
Experimental: as §1

[3] = listed as compound of Formula (II)

C[C@H](C(=O)NC1CCCC1)N(C(=O)Cn1nnc(-c2ccc3c(c2)OCO3)n1)C1CCCCC1 [ML279, (R)-2-(2-(5-(Benzo[d][1,3]dioxol-5-yl)-2H-tetrazol-2-yl)-N-cyclohexylacetamido)-N-cyclopentylpropanamide]
stability to GSH (in words) (Stability to GSH): stable to GSH
endocytosis of transferrin (in words) [1]: does not inhibit endocytosis of transferrin; also recorded: not grossly perturbing cellular membrane trafficking pathways; also recorded: no effect on the endocytosis of transferrin
endocytosis of transferrin (in words) [1, 3]: does not inhibit endocytosis of transferrin
solubility (Solubility in PBS; listed as CID53393835): 27 µM (≈ 12.7 µg/mL)
solubility (Solubility in PBS; phosphate buffered saline, 23 °C, pH 7.4, aqueous buffer, kinetic from dmso stock): 28 µM (≈ 13.1 µg/mL)
reduction of efflux of free cholesterol from cells (SR-BI): about 50%
inhibition of efflux of free cholesterol (in words) (SR-BI): inhibiting both SR-BI-mediated uptake of cholesteryl ester from HDL and efflux of free cholesterol to HDL particles; also recorded: inhibits efflux of free cholesterol
inhibition of efflux of free cholesterol (in words) (SR-BI; [3]): inhibit efflux of cholesterol
stability in human plasma, remaining [2]: > 99%
